From the supplement of paper PMC10307832

Assays:
Assay in all cases: relative viability (nuclei count vs DMSO), 5 days (fraction); higher = more cells survive
17-AAG = compound: C=CCNC1=C2C[C@@H](C)C[C@H](OC)[C@H](O)[C@@H](C)/C=C(\C)[C@H](OC(N)=O)[C@@H](OC)/C=C\C=C(/C)C(=O)NC(=CC1=O)C2=O [17-AAG]
Summary of the method: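 Hoechst staining, done together with fixation and permeabilisation, marked nuclei for 4× imaging and MetaXpress counting. This followed 5 days without medium change after lung cancer cell lines, kept overnight at 37 °C in 1536-well plates, were pinned with five library-drug doses (not always all listed) spaced by √10 on vehicle-anchored plates. Viability is the ratio of treated-well to vehicle-well nuclei, expressed as a median across plates. Plates passed only at control CV below 25% with at least one doubling.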

17-AAG + Foretinib = compound: C=CCNC1=C2C[C@@H](C)C[C@H](OC)[C@H](O)[C@@H](C)/C=C(\C)[C@H](OC(N)=O)[C@@H](OC)/C=C\C=C(/C)C(=O)NC(=CC1=O)C2=O [17-AAG] + COc1cc2c(Oc3ccc(NC(=O)C4(C(=O)Nc5ccc(F)cc5)CC4)cc3F)ccnc2cc1OCCCN1CCOCC1 [Foretinib] (partner 0.25 µM)
Summary of the method: (§1)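 After 5 days of treatment, lung cancer cells in 1536-well plates were fixed and stained in a single step (final 0.05% Triton X-100, 1% formaldehyde, 1 ug/ml Hoechst) and their nuclei counted on 4× images. Treatment had been applied by pin tool the day after seeding as one drug alone or as a fixed anchor-drug dose with five library-drug doses (not always all listed) in √10 steps. Relative viability is the nuclei count of treated wells divided by that of vehicle wells, and values are medians of duplicate plates.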

17-AAG + OSI-027 = compound: C=CCNC1=C2C[C@@H](C)C[C@H](OC)[C@H](O)[C@@H](C)/C=C(\C)[C@H](OC(N)=O)[C@@H](OC)/C=C\C=C(/C)C(=O)NC(=CC1=O)C2=O [17-AAG] + COc1cccc2cc(-c3nc([C@H]4CC[C@H](C(=O)O)CC4)n4ncnc(N)c34)[nH]c12 [OSI-027] (partner 0.5 µM)
Summary of the method: as §1

17-AAG + Palbociclib = compound: C=CCNC1=C2C[C@@H](C)C[C@H](OC)[C@H](O)[C@@H](C)/C=C(\C)[C@H](OC(N)=O)[C@@H](OC)/C=C\C=C(/C)C(=O)NC(=CC1=O)C2=O [17-AAG] + CC(=O)c1c(C)c2cnc(Nc3ccc(N4CCNCC4)cn3)nc2n(C2CCCC2)c1=O [Palbociclib] (partner 0.5 µM)
Summary of the method: as §1

Cell Line | relative viability (17-AAG; 0.00128 µM) | relative viability (17-AAG; 0.004048 µM) | relative viability (17-AAG; 0.0128 µM) | relative viability (17-AAG; 0.04048 µM) | relative viability (17-AAG; 0.128 µM) | relative viability (17-AAG + Foretinib; first compound 0.00128 µM) | relative viability (17-AAG + Foretinib; first compound 0.004048 µM) | relative viability (17-AAG + Foretinib; first compound 0.0128 µM) | relative viability (17-AAG + Foretinib; first compound 0.04048 µM) | relative viability (17-AAG + Foretinib; first compound 0.128 µM) | relative viability (17-AAG + OSI-027; first compound 0.00128 µM) | relative viability (17-AAG + OSI-027; first compound 0.004048 µM) | relative viability (17-AAG + OSI-027; first compound 0.0128 µM) | relative viability (17-AAG + OSI-027; first compound 0.04048 µM) | relative viability (17-AAG + OSI-027; first compound 0.128 µM) | relative viability (17-AAG + Palbociclib; first compound 0.00128 µM) | relative viability (17-AAG + Palbociclib; first compound 0.004048 µM) | relative viability (17-AAG + Palbociclib; first compound 0.0128 µM) | relative viability (17-AAG + Palbociclib; first compound 0.04048 µM) | relative viability (17-AAG + Palbociclib; first compound 0.128 µM)
NCI-H2009 | 0.961 | 0.995 | 0.93 | 0.894 | 0.274 | 1.23 | 1.14 | 1.17 | 0.85 | 0.138 | 0.635 | 0.654 | 0.618 | 0.376 | 0.0937 | 0.22 | 0.254 | 0.258 | 0.203 | 0.0584
NCI-H2023 | 0.919 | 0.724 | 0.122 | 0.0716 | 0.0728 | 0.93 | 0.672 | 0.297 | 0.0761 | 0.0537 | 0.328 | 0.221 | 0.0577 | 0.0589 | 0.0633 | 0.374 | 0.195 | 0.102 | 0.0665 | 0.0605
NCI-H2085 | 0.994 | 0.95 | 0.99 | 0.919 | 0.76 | 0.92 | 0.834 | 1.06 | 0.844 | 0.563 | 0.845 | 0.859 | 0.763 | 0.521 | 0.29 | 0.51 | 0.472 | 0.479 | 0.443 | 0.337
NCI-H2087 | 0.984 | 0.767 | 0.16 | 0.177 | 0.134 | 1.08 | 0.855 | 0.183 | 0.137 | 0.113 | 0.483 | 0.325 | 0.124 | 0.15 | 0.0762 | 0.315 | 0.179 | 0.185 | 0.0984 | 0.108
NCI-H2126 | 1.01 | 0.995 | 0.957 | 0.435 | 0.26 | 1.29 | 1.19 | 1.05 | 0.908 | 0.236 | 0.778 | 0.758 | 0.479 | 0.231 | 0.291 | 0.358 | 0.375 | 0.364 | 0.344 | 0.349
NCI-H2170 | 1.01 | 0.973 | 0.605 | 0.178 | 0.168 | 0.961 | 1.01 | 0.955 | 0.607 | 0.328 | 0.652 | 0.585 | 0.385 | 0.187 | 0.118 | 0.397 | 0.385 | 0.324 | 0.192 | 0.115
NCI-H2228 | 1.08 | 0.72 | 0.125 | 0.112 | 0.152 | 0.772 | 0.587 | 0.142 | 0.119 | 0.0997 | 0.583 | 0.265 | 0.104 | 0.0876 | 0.0979 | 0.672 | 0.483 | 0.131 | 0.101 | 0.107
NCI-H2342 | 0.951 | 1.01 | 1.01 | 0.78 | 0.428 | 0.97 | 1.04 | 0.968 | 0.846 | 0.374 | 0.552 | 0.716 | 0.584 | 0.504 | 0.425 | 0.458 | 0.542 | 0.504 | 0.495 | 0.525
NCI-H2347 | 0.958 | 0.998 | 1.13 | 0.557 | 0.385 |  | 1.03 | 0.859 | 0.35 | 0.413 | 0.323 | 0.395 | 0.464 | 0.241 | 0.201 | 0.45 | 0.446 | 0.397 | 0.317 | 0.322
NCI-H2405 | 1.02 | 0.957 | 0.663 | 0.251 | 0.236 | 1.1 | 1.04 | 0.93 | 0.245 | 0.195 | 0.636 | 0.686 | 0.532 | 0.223 | 0.181 | 0.541 | 0.525 | 0.364 | 0.219 | 0.174
NCI-H3122 | 0.99 | 0.867 | 0.29 | 0.155 | 0.134 | 0.961 | 0.934 | 0.138 | 0.076 | 0.098 | 0.713 | 0.169 | 0.126 | 0.12 | 0.114 | 0.194 | 0.155 | 0.19 | 0.0911 | 0.117
PC-3 [JPC-3] | 1.01 | 1.06 | 1.01 |  | 0.873 | 0.981 | 1.04 | 1.01 |  | 0.885 | 0.729 | 0.787 | 0.851 |  | 0.653 | 0.575 | 0.57 | 0.551 | 0.463 | 0.528
PC-14 | 0.967 | 0.742 | 0.398 | 0.108 | 0.0843 | 0.943 | 0.961 | 0.82 | 0.143 | 0.134 | 0.803 | 0.289 | 0.0511 | 0.0734 | 0.0603 | 0.471 | 0.241 | 0.0966 | 0.0821 | 0.0751
RERF-LC-KJ | 1.03 | 1.05 | 0.669 | 0.284 | 0.26 | 0.883 | 0.951 | 0.974 | 0.346 | 0.296 | 0.62 | 0.637 | 0.231 | 0.268 | 0.22 | 1.11 | 1.07 | 0.857 | 0.472 | 0.219
SK-LU-1 | 1.06 | 0.796 | 0.315 | 0.229 | 0.181 | 0.863 | 0.566 | 0.167 | 0.143 | 0.127 | 0.342 | 0.17 | 0.102 | 0.0747 | 0.0783 | 0.441 | 0.469 | 0.295 | 0.272 | 0.204
